Experimental data as given in patent US11091478B2 (Fochon Pharmaceuticals, Ltd., priority 2017, dated 2021).

What was measured:
[1] = system: DOHH2 cells; experiment: Cell proliferation assay (MTS), DOHH2 cells, 120 h; type: cell-based; details: Homo sapiens, DOHH-2, 120 h
Method in brief: (§1)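 Treatment lasts 72 h for RS4;11 and 120 h for DOHH2 cells seeded at 5000 per well in serum-containing RPMI-1640. A 2 h MTS step, halted with 10% SDS, precedes dual-wavelength absorbance reading and IC50 fitting.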

[2] = system: RS4;11 cells; experiment: Cell proliferation assay (MTS), RS4;11 cells, 72 h; type: cell-based; details: Homo sapiens, RS4-11, 72 h
Method in brief: as §1

| Structure (SMILES) | IC50 [1] [nM] | IC50 [2] [nM] |
| --- | --- | --- |
| CN1CCN(CC[C@H]2COc3cc(S(=O)(=O)NC(=O)c4ccc(N5CCN(CC6=C(c7ccc(Cl)cc7)CC(C)(C)CC6)CC5)cc4Oc4cnc5[nH]ccc5c4)cc([N+](=O)[O-])c3N2)CC1 [Example 2-9, (S)-2-((1H-pyrrolo[2,3-b]pyridin-5-yl)oxy)-4-(4-((4′-chloro-5,5-dimethyl-3,4,5,6-tetra-hydro-[1,1′-biphenyl]-2-yl)methyl)piperazin-1-yl)-N-((3-(2-(4-methylpiperazin-1-yl)eth-yl)-5-nitro-3,4-dihydro-2H-benzo[b][1,4]oxazin-7-yl)sulfonyl)benzamide] | 33 | 10 |
| CC1(C)CCC(CN2CCN(c3ccc(C(=O)NS(=O)(=O)c4cc5c(c([N+](=O)[O-])c4)N[C@@H](CCN4CCOCC4)CO5)c(Oc4cnc5[nH]ccc5c4)c3)CC2)=C(c2ccc(Cl)cc2)C1 [Example 2-10, (S)-2-((1H-pyrrolo[2,3-b]pyridin-5-yl)oxy)-4-(4-((4′-chloro-5,5-dimethyl-3,4,5,6-tetra-hydro-[1,1′-biphenyl]-2-yl)methyl)piperazin-1-yl)-N-((3-(2-morpholinoethyl)-5-nitro-3,4-dihydro-2H-benzo[b][1,4]oxazin-7-yl)sulfonyl)benzamide] | 28 | 9 |
| CC1(C)CCC(CN2CCN(c3ccc(C(=O)NS(=O)(=O)c4cc5c(c([N+](=O)[O-])c4)N[C@@H](CCN4CCC(C)(O)CC4)CO5)c(Oc4cnc5[nH]ccc5c4)c3)CC2)=C(c2ccc(Cl)cc2)C1 [Example 2-11, (S)-2-((1H-pyrrolo[2,3-b]pyridin-5-yl)oxy)-4-(4-((4′-chloro-5,5-dimethyl-3,4,5,6-tetra-hydro-[1,1′-biphenyl]-2-yl)methyl)piperazin-1-yl)-N-((3-(2-(4-hydroxy-4-methylpiper-idin-1-yl)ethyl)-5-nitro-3,4-dihydro-2H-benzo[b][1,4]oxazin-7-yl)sulfonyl)benzamide] | 53 | 12 |
| CN(C)CC[C@H]1COc2cc(S(=O)(=O)NC(=O)c3ccc(N4CCN(CC5=C(c6ccc(Cl)cc6)CC(C)(C)CC5)CC4)cc3Oc3cnc4[nH]ccc4c3)cc([N+](=O)[O-])c2N1 [Example 2-12, (S)-2-((1H-pyrrolo[2,3-b]pyridin-5-yl)oxy)-4-(4-((4′-chloro-5,5-dimethyl-3,4,5,6-tetra-hydro-[1,1′-biphenyl]-2-yl)methyl)piperazin-1-yl)-N-((3-(2-(dimethylamino)ethyl)-5-nitro-3,4-dihydro-2H-benzo[b][1,4]oxazin-7-yl)sulfonyl)benzamide] | 19 | 1 |
| CC1(C)CCC(CN2CCN(c3ccc(C(=O)NS(=O)(=O)c4cc5c(c([N+](=O)[O-])c4)N[C@@H](CCO)CO5)c(Oc4cnc5[nH]ccc5c4)c3)CC2)=C(c2ccc(Cl)cc2)C1 [Example 2-13, (S)-2-((1H-pyrrolo[2,3-b]pyridin-5-yl)oxy)-4-(4-((4′-chloro-5,5-dimethyl-3,4,5,6-tetra-hydro-[1,1′-biphenyl]-2-yl)methyl)piperazin-1-yl)-N-((3-(2-hydroxyethyl)-5-nitro-3,4-dihydro-2H-benzo[b][1,4]oxazin-7-yl)sulfonyl)benzamide] | 33 | 9 |
| CN1CCN(CC[C@@H]2COc3cc(S(=O)(=O)NC(=O)c4ccc(N5CCN(CC6=C(c7ccc(Cl)cc7)CC(C)(C)CC6)CC5)cc4Oc4cnc5[nH]ccc5c4)cc([N+](=O)[O-])c3N2)CC1 [Example 2-14, (R)-2-((1H-pyrrolo[2,3-b]pyridin-5-yl)oxy)-4-(4-((4′-chloro-5,5-dimethyl-3,4,5,6-tetra-hydro-[1,1′-biphenyl]-2-yl)methyl)piperazin-1-yl)-N-((3-(2-(4-methylpiperazin-1-yl)eth-yl)-5-nitro-3,4-dihydro-2H-benzo[b][1,4]oxazin-7-yl)sulfonyl)benzamide] | 15 | 4 |
| CC1(C)CCC(CN2CCN(c3ccc(C(=O)NS(=O)(=O)c4cc5c(c([N+](=O)[O-])c4)N[C@H](CCN4CCC(C)(O)CC4)CO5)c(Oc4cnc5[nH]ccc5c4)c3)CC2)=C(c2ccc(Cl)cc2)C1 [Example 2-15, (R)-2-((1H-pyrrolo[2,3-b]pyridin-5-yl)oxy)-4-(4-((4′-chloro-5,5-dimethyl-3,4,5,6-tetra-hydro-[1,1′-biphenyl]-2-yl)methyl)piperazin-1-yl)-N-((3-(2-(4-hydroxy-4-methylpiper-idin-1-yl)ethyl)-5-nitro-3,4-dihydro-2H-benzo[b][1,4]oxazin-7-yl)sulfonyl)benzamide] | 50 | 20 |
| CN(C)CC[C@@H]1COc2cc(S(=O)(=O)NC(=O)c3ccc(N4CCN(CC5=C(c6ccc(Cl)cc6)CC(C)(C)CC5)CC4)cc3Oc3cnc4[nH]ccc4c3)cc([N+](=O)[O-])c2N1 [Example 2-16, (R)-2-((1H-pyrrolo[2,3-b]pyridin-5-yl)oxy)-4-(4-((4′-chloro-5,5-dimethyl-3,4,5,6-tetra-hydro-[1,1′-biphenyl]-2-yl)methyl)piperazin-1-yl)-N-((3-(2-(dimethylamino)ethyl)-5-nitro-3,4-dihydro-2H-benzo[b][1,4]oxazin-7-yl)sulfonyl)benzamide] | 34 | 4 |
| CC1(C)CCC(CN2CCN(c3ccc(C(=O)NS(=O)(=O)c4cc5c(c([N+](=O)[O-])c4)N[C@H](CCO)CO5)c(Oc4cnc5[nH]ccc5c4)c3)CC2)=C(c2ccc(Cl)cc2)C1 [Example 2-17, (R)-2-((1H-pyrrolo[2,3-b]pyridin-5-yl)oxy)-4-(4-((4′-chloro-5,5-dimethyl-3,4,5,6-tetra-hydro-[1,1′-biphenyl]-2-yl)methyl)piperazin-1-yl)-N-((3-(2-hydroxyethyl)-5-nitro-3,4-dihydro-2H-benzo[b][1,4]oxazin-7-yl)sulfo-nyl)benzamide] | 20 | 8 |
| CC1(C)CCC(CN2CCN(c3ccc(C(=O)NS(=O)(=O)c4cc5c(c([N+](=O)[O-])c4)N[C@@H](CN4CCOCC4)CO5)c(Oc4cnc5[nH]ccc5c4)c3)CC2)=C(c2ccc(Cl)cc2)C1 [Example 2-18, (S)-2-((1H-pyrrolo[2,3-b]pyridin-5-yl)oxy)-4-(4-((4′-chloro-5,5-dimethyl-3,4,5,6-tetra-hydro-[1,1′-biphenyl]-2-yl)methyl)piperazin-1-yl)-N-((3-(morpholinomethyl)-5-nitro-3,4-dihydro-2H-benzo[b][1,4]oxazin-7-yl)sulfonyl)benzamide] | 9 | 4 |
| CC1(C)CCC(CN2CCN(c3ccc(C(=O)NS(=O)(=O)c4cc5c(c([N+](=O)[O-])c4)N[C@@H](CN4CCC(C)(O)CC4)CO5)c(Oc4cnc5[nH]ccc5c4)c3)CC2)=C(c2ccc(Cl)cc2)C1 [Example 2-19, (S)-2-((1H-pyrrolo[2,3-b]pyridin-5-yl)oxy)-4-(4-((4′-chloro-5,5-dimethyl-3,4,5,6-tetra-hydro-[1,1′-biphenyl]-2-yl)methyl)piperazin-1-yl)-N-((3-((4-hydroxy-4-methylpiperidin-1-yl)methyl)-5-nitro-3,4-dihydro-2H-ben-zo[b][1,4]oxazin-7-yl)sulfonyl)benzamide] | 70 | 36 |
